Measured values as given in patent US20200054541A1, “METHODS FOR REDUCING SWEAT AND/OR BODY ODOR, USING P[…] WITH AMINE AND/OR HYDROXYL GROUPS” (Henkel AG & Co. KGaA, priority 2017, published 2020).

Test system: backs of 16 test persons
Test: In vivo test for antiperspirant activity (sauna sweat test, gravimetric)
Parameters: species or system human
Conditions: 5.0% by weight aqueous solution, 75 μL applied on the back on four consecutive days; measured 24 h after last application; about 15 minutes at 80° C. in the sauna; gravimetric vs untreated site; 16 subjects
Experimental: 1. In Vivo Test for Antiperspirant Activity
To determine the antiperspirant effect, an antiperspirant study was performed on the backs of 16 test persons. A 5.0% by weight aqueous solution of a phosphonate compound of the Formula (I) with a=b=1, R=*—(CH2)x—PO3X^+Y^+ group where x=1 and X^+=Y^+=hydrogen or Na^+ was prepared for this purpose.
75 μL of the prepared solution were applied on the back of 16 subjects on one side next to the spine. After 5 minutes, the treated sites were covered with occlusive non-adsorbent film. These non-adsorbent pads were removed after 2 hours. The compositions were each applied to the backs of the subjects for four consecutive days in the manner previously described. 24 h after the last application of the composition, absorbent pads were applied to the backs of the subjects at the sites where the compositions were previously applied. Furthermore, pads, which served as a control, were also applied on the other side of the spine at the same height. After the subjects had sweat for about 15 minutes at 80° C. in the sauna, the amount of perspiration absorbed by the pads was determined gravimetrically, wherein each composition was compared with the corresponding untreated site on the back. The sweat reduction was determined from the gravimetric determination of the amount of sweat, wherein all determined values were statistically significant.

`O=P(O)(O)CN(CP(=O)(O)O)CP(=O)(O)O` [phosphonate compound of Formula (I), aminotrimethylene phosphonate] was tested, and the sweat reduction was 10.1%.
